According to article PMC6130495, “Effect of piplartine and cinnamides on Leishmania amazonensis, Plasmodium falciparum and on peritoneal cells of Swiss mice” (Pharmaceutical Biology, 2017):
Several values for one entry are separate records, joined by “and”; a condition that tells them apart may be missing. Equal values may be shown once. Read-outs that look alike come from different tables or passages of the source.

Legend:
[1] = test system: L. amazonensis promastigotes; assay: Inhibition of L. amazonensis promastigotes, MTT method; format: cell-based, Leishmania amazonensis
Protocol: The MHOM/BR/pH8 strain was transferred to the NNN solid medium (Novy-MacNeal-Nicolle) for 48 h at 24 °C.
(Sigma-Aldrich) method was used. This method evaluates the cell viability by the activity of mitochondrial succinate dehydrogenase enzyme that cleaves the tetrazolium salt to form formazan crystals in living cells. For the cultures of P. falciparum-infected erythrocytes, the IC50 were determined by optical microscopy.
Then, 10 μL of MTT solution (5 mg/mL) was added to all wells and the cultures were re-incubated at the same condition for 4 h, but protected from light. […] The results were expressed in percentage.

[2] = test system: P. falciparum-infected erythrocytes; assay: Growth inhibition of P. falciparum-infected erythrocytes, optical microscopy; format: cell-based; conditions: Plasmodium falciparum, Erythrocyte; for inhibition at 0.008 µg/mL: positive control, 8 ng/mL
Protocol: The Pf/Unb169 strain, kept under cryopreservation was culture together with O^+ erythrocytes in RPMI 1640 medium, supplemented with hypoxanthine (0.25 mg/dL), 10% of human serum, and gentamicin ([…]), at 37 °C in air with 5% CO2. For the assays, a suspension with 3% of hematocrit and 0.6% of infected erythrocytes was prepared.
To assess inhibitory or cytotoxic concentrations of the compounds (1–5), able to eliminate 50% of the cells in the cultures of L. amazonensis (IC50) and cytotoxic concentrations (CC50) in the cultures of peritoneal cell, MTT [3-(4,5-dimethylthiazol-2-yl)-2,5-diphenyltetrazolium bromide] (Sigma-Aldrich) method was used. This method evaluates the cell viability by the activity of mitochondrial succinate dehydrogenase enzyme that cleaves the tetrazolium salt to form formazan crystals in living cells. For the cultures of P. falciparum-infected erythrocytes, the IC50 were determined by optical microscopy. The concentrations for the compounds tested were calculated in μg/mL (ranging from 0 to 256 μg/mL), as well their equivalent in […], being: 1 (0 to 806.7 μM), 2 (0 to 833.0 μM), 3 (0 to 923.0 μM), 4 (0 to 832.8 μM) and 5 (0 to 923.1 μM).
A suspension of O^+ human erythrocytes (3% hematocrit and 0.6% of infected erythrocytes) was incubated at 37 °C with 5% of CO2 in air, for 48 or 72 h in RPMI 1640 medium supplemented with 10% human serum, in triplicate, in 96 wells plate, with different concentrations (0 to 256 μg/mL) of compounds (1–5). As positive control, infected erythrocytes were incubated with 8 ng/mL of artesunate (Artemix Ativus, São Paulo, Brazil) and, as negative control, they were incubated exclusively with the diluent (complete RPMI 1640 medium); 50% of the medium, for the cultures incubated for 72 h, was exchanged after 48 h, at the same concentrations as before. After that, 150 μL of the supernatant of the cultures were discarded, and a drop of suspension distended onto slides for microscopy, dried and fixed with methanol, was stained for 15 min with 10% of Giemsa solution (PBS, pH 6.9). The erythrocytes (1000 cells/slide) were analyzed by a single observer with optical microscopy and the results were expressed in percentage of infected cells.
The SI for each amide (1–5) was obtained by dividing the concentration able to eliminate 50% of peritoneal cells (CC50) by the concentration able to inhibit the growth of 50% of the protozoa (IC50). Compounds which presented SI greater than 10 were considered potentially microbicides and safe for the host cells (Bézivin et al. [2003]).

[3] = Cytotoxicity to peritoneal cells, MTT method; format: cell-based, Swiss mice; conditions: both sexes, Swiss, mouse, peritoneal cells (>99% macrophages), 6 h incubation, read-out: Estimated CC50 peritoneal cell 6 h
Protocol: To obtain peritoneal cells, six adult Swiss mice (male and female), weighing 30 ± 6 g, were used. During the experiments, the animals were kept in the Faculty of Medicine, University of Brasilia under ambient temperature, light/dark cycle of 12 h, fed with balanced diet and water ad libitum. The study was approved by the Ethics Committee on Animal Use (CEUA) of the Institute of Biological Sciences at University of Brasilia (Doc. no. 22199/2014).
To assess inhibitory or cytotoxic concentrations of the compounds (1–5), able to eliminate 50% of the cells in the cultures of L. amazonensis (IC50) and cytotoxic concentrations (CC50) in the cultures of peritoneal cell, MTT [3-(4,5-dimethylthiazol-2-yl)-2,5-diphenyltetrazolium bromide] (Sigma-Aldrich) method was used. This method evaluates the cell viability by the activity of mitochondrial succinate dehydrogenase enzyme that cleaves the tetrazolium salt to form formazan crystals in living cells. […]
Initially, cells obtained by washing the peritoneal cavity of the mice with 10 mL of PBS pH 7.2 at 4 °C, centrifuged at 400 g for 10 min and suspended with 1 mL of RPMI 1640 medium were quantified at Neubauer chamber with 0.05% of nigrosin solution. […] The formazan crystals were solubilized with 50 μL of DMSO/well and the absorbance obtained in spectrophotometer (Spectra Max® Plus 384) with 550 nm. […]

COc1cc(/C=C/C(=O)N2CCC=CC2=O)cc(OC)c1OC [Compound 1, 1-[(E)-3-(3,4,5-trimethoxyphenyl)prop-2-enoyl]-2,3-dihydropyridin-6-one]
Selectivity Index (SI) = CC50/IC50, L. amazonensis ([1]; CC50 peritoneal cells 6 h / IC50 L. amazonensis 6 h): 1.3
Inhibitory activity relative to piperidine analogue (fold) ([1]; L. amazonensis promastigotes, fold superior to piperidine analogue (IC50 2297.9 μM)): 4.07 fold
IC50 ([1]; Leishmania amazonensis, 6 h, read-out: Estimated IC50 L. amazonensis 6 h): 564 µM and 179 µg/mL
IC50 ([2]; 48 h, read-out: Estimated IC50 P. falciparum 48 h): 19.5 µM and 6.2 µg/mL
inhibition at 64 µg/mL ([2]; 48 h, read-out: Inhibition of growth of parasites (P. falciparum)): 100%
IC50 ([2]; 72 h, read-out: Estimated IC50 P. falciparum 72 h): 10.1 µM and 3.2 µg/mL
inhibition at 8 µg/mL ([2]; 72 h, read-out: Inhibition of growth of parasites (P. falciparum)): 100%
CC50 at 6 h [3]: 731 µM and 232 µg/mL

CNC[C@H](O)[C@@H](O)[C@H](O)[C@H](O)CO.[O]=[Sb](=[O])[OH] [N-metilglucamine, antimoniate of N-metilglucamine, reference compound]
Inhibition of the parasites (L. amazonensis) ([1]; positive control, 4 μg/mL, 6 h incubation): 55.4%

C[C@H]1[C@H](OC(=O)CCC(=O)O)O[C@@H]2O[C@@]3(C)CC[C@H]4[C@H](C)CC[C@@H]1[C@@]24OO3 [artesunate, reference compound]
inhibition at 0.008 µg/mL ([2]; 48 h incubation, read-out: Inhibition of the parasites (P. falciparum) 48 h): 79.8%
inhibition at 0.008 µg/mL ([2]; 72 h incubation, read-out: Inhibition of the parasites (P. falciparum) 72 h): 90%

COc1cc(C=CC(=O)N2CCCCC2)cc(OC)c1OC [piperidine analogue]
IC50 ([1]; previous screening, data not shown, read-out: IC50 on growth of L. amazonensis promastigotes): 2300 µM
